Assays:
Test in all cases: Postemergence foliar-applied weed control, direct-seeded rice (greenhouse)
IPOHE = assay type: in vivo, Ipomoea hederacea (L.) Jacq. (ivyleaf morningglory)
Method: (§1) Seeds or nutlets of the desired test plant species were planted in a soil matrix prepared by mixing aloam or sandy loam soil (e.g., 28.6 percent silt, 18.8 percent clay, and 52.6 percent sand, with a pH of about 5.8 and an organic matter content of about 1.8 percent) and calcareous grit in an 80 to 20 ratio. The soil matrix was contained in plastic pots with a volume of 1 quart and a surface area of 83.6 square centimeters (cm^2). […] The plants were grown for 8-22 days in a greenhouse with an approximate 14 hour (h) photoperiod which was maintained at about 29° C. during the day and 26° C. during the night. Nutrients (Peters Excel® 15-5-15 5-Ca 2-Mg and iron chelate) were applied in the irrigation solution as needed and water was added on a regular basis. Supplemental lighting was provided with overhead metal halide 1000-Watt lamps as necessary. The plants were employed for testing when they reached the first through fourth true leaf stage.
(§2) Treatments consisted of the acid or esters of 4-amino-3-chloro-5-fluoro-6-(4-chloro-2-fluoro-3-methoxy-phenyl)pyridine-2-carboxylic acid (Compound A), each formulated as an SC (suspension concentrate), and various fungicidal components alone and in combination. Forms of compound A were applied on an acid equivalent basis.
(§3) For treatments comprised of formulated compounds, measured amounts of compounds were placed individually in 25 mL glass vials and diluted in a volume of 1.25% volume per volume (v/v) Agri-Dex® crop oil concentrate to obtain 12× stock solutions. […] Application solutions were prepared by adding an appropriate amount of each stock solution (e.g., 1 mL) and diluted to the appropriate final concentrations with the addition of […] of an aqueous mixture of 1.25% (v/v) crop oil concentrate so that the final spray solutions contained 1.25+/−0.05% (v/v) crop oil concentrate.
(§4) For treatments comprised of technical compounds, weighed amounts can be placed individually in 25 mL glass vials and dissolved in a volume of 97:3 volume per volume (v/v) acetone/dimethyl sulfoxide (DMSO) to obtain 12× stock solutions. […] When technical materials are used, the concentrated stock solutions can be added to the spray solutions so that the final acetone and DMSO concentrations of the application solutions are 16.2% and 0.5%, respectively.
(§5) As required, additional water and/or 97:3 v/v acetone/DMSO was added to individual application solutions so that the final acetone and DMSO concentrations of the application solutions being compared were 8.1% and 0.25%, respectively
(§6) All stock solutions and applications solutions were visually inspected for compound compatibility prior to application. Spray solutions were applied to the plant material with an overhead Mandel track sprayer equipped with 8002E nozzles calibrated to deliver 187 L/ha over an application area of 0.503 square meters (m^2) at a spray height of 18 to 20 inches (46 to 50 cm) above average plant canopy height. Control plants were sprayed in the same manner with the solvent blank.
(§7) The treated plants and control plants were placed in a greenhouse as described above and watered by sub-irrigation to prevent wash-off of the test compounds. After approximately 3 weeks, the condition of the test plants as compared with that of the untreated plants was determined visually and scored on a scale of 0 to 100 percent where 0 corresponds to no injury or growth inhibition and 100 corresponds to complete kill.
(§8) Colby's equation was used to determine the herbicidal effects expected from the mixtures (Colby, S. R. Calculation of the synergistic and antagonistic response of herbicide combinations. Weeds 1967, 15, 20-22.).
(§9) The following equation was used to calculate the expected activity of mixtures containing two active ingredients, A and B: Expected=A+B−(A×B/100)

LEFCH = assay type: in vivo, Leptochloa chinensis (L.) Nees (Chinese sprangletop); conditions: 21 DAA
Method: as §1, §2, §3, §4, §5, §6, §7, §8, §9

ECHOR = assay type: in vivo, Echinochloa oryzoides (Ard.) Fritsch (early watergrass)
Method: as §1, §2
For treatments comprised of formulated compounds, measured amounts of compounds were placed individually in 25 mL glass vials and diluted in a volume of 1.25% volume per volume (v/v) Agri-Dex® crop oil concentrate to obtain 12× stock solutions. […]
as §7, with “kill. […]” for “kill.”

ECHCG = assay type: in vivo, Echinochloa crus-galli (L.) P. Beauv. (barnyardgrass)
Method: as §1, §2, §3, §4, §5, §6, §7, §8, §9

DIGSA = assay type: in vivo, Digitaria sanguinalis (L.) Scop. (large crabgrass)
From the text: Seeds or nutlets of the desired test plant species were planted in a soil matrix prepared by mixing aloam or sandy loam soil (e.g., 28.6 percent silt, 18.8 percent clay, and 52.6 percent sand, with a pH of about 5.8 and an organic matter content of about 1.8 percent) and calcareous grit in an 80 to 20 ratio. The soil matrix was contained in plastic pots with a volume of 1 quart and a surface area of 83.6 square centimeters (cm^2). When required to ensure good germination and healthy plants, a fungicide treatment and/or other chemical or physical treatment was applied. The plants were grown for 8-22 days in a greenhouse with an approximate 14 hour (h) photoperiod which was maintained at about 29° C. during the day and 26° C. during the night. Nutrients (Peters Excel® 15-5-15 5-Ca 2-Mg and iron chelate) were applied in the irrigation solution as needed and water was added on a regular basis. Supplemental lighting was provided with overhead metal halide 1000-Watt lamps as necessary. The plants were employed for testing when they reached the first through fourth true leaf stage.
as §2
Treatment requirements were calculated based upon the rates being tested, the concentration of active ingredient or acid equivalent in the formulation and a 12 milliliter (mL) application volume at a rate of 187 liters per hectare (L/ha).
as §3, §4, §5, §6
as §7, with “kill. […]” for “kill.”

CYPES = assay type: in vivo, Cyperus esculentus L. (yellow nutsedge); conditions: r45 ester 8 g ae/ha alone, r46-48 kasugamycin 17.5/35/70 g ai/ha alone, r49-51 ester 8 + 17.5/35/70
Method: as §1, §2, §3, §4, §5, §6
as §7, with “kill. […]” for “kill.”

CYPIR = assay type: in vivo, Cyperus iria L. (rice flatsedge); conditions: 21 DAA, r29-30 ester 8/16 g ae/ha alone, r31-33 kasugamycin 17.5/35/70 g ai/ha alone, r34-39 ester 8/16 at each of 17.5, 35, 70
Method: as §1, §2, §3, §4, §5, §6, §7, §8, §9

[1] = r10-12 ester 4.38/8.75/17.5 g ae/ha alone, r13 difenoconazole 200 g ai/ha alone, r14-16 ester 4.38/8.75/17.5 + 200
[2] = r9-11 acid 5.3/10.6/21.2 g ae/ha alone, r12 difenoconazole 200 g ai/ha alone, r13-15 acid 5.3/10.6/21.2 + 200
[3] = r9-11 ester 8/16/32 g ae/ha alone, r12-14 kasugamycin 17.5/35/70 g ai/ha alone, r15-23 ester 8/16/32 at each of 17.5, 35, 70

CC1COC(Cn2cncn2)(c2ccc(Oc3ccc(Cl)cc3)cc2Cl)O1 (mixture of isomers) [Difenoconazole, cis, trans-3-chloro-4-[4-methyl-2-(1H-1,2,4-triazol-1-ylmethyl)-1,3,dioxolan-2-yl]phenyl 4-chlorophenyl ether, reference compound]
0%: Visual Weed Control (%) - 21 DAA IPOHE Obs (IPOHE; [1]) | Visual Weed Control (%)—21 DAA LEFCH Obs (LEFCH; [2]) | Visual Weed Control (%) - 21 DAA LEFCH Obs (LEFCH; [1]) | Visual Weed Control (%) - 21 DAA LEFCH Obs (LEFCH; r42-43 ester 16/32 g ae/ha alone, r44-46 difenoconazole 50/100/200 g ai/ha alone, r47-52 ester 16/32 at each of 50, 100, 200) | Visual Weed Control (%) - 21 DAA ECHOR Obs (ECHOR; r78-80 ester 8/16/32 g ae/ha alone, r81-83 difenoconazole 50/100/200 g ai/ha alone, r84-92 ester 8/16/32 at each of 50, 100, 200) | Visual Weed Control (%)—21 DAA ECHCG Obs (ECHCG; [2]) | Visual Weed Control (%) - 21 DAA ECHCG Obs (ECHCG; r58-60 ester 8/16/32 g ae/ha alone, r61-63 difenoconazole 50/100/200 g ai/ha alone, r64-72 ester 8/16/32 at each of 50, 100, 200) | Visual Weed Control (%)—21 DAA DIGSA Obs (DIGSA; [2]) | Visual Weed Control (%) - 22 DAA DIGSA Obs (DIGSA; 22 DAA, r22-24 ester 8/16/32 g ae/ha alone, r25-27 difenoconazole 50/100/200 g ai/ha alone, r28-36 ester 8/16/32 at each of 50, 100, 200)

CC1OC(OC2C(O)C(O)C(O)C(O)C2O)C(N)CC1NC(=N)C(=O)O.Cl [Kasugamycin, 1L-1,3,4/2,5,6-1-deoxy-2,3,4,5,6,-pentahydroxycyclohexyl 2-amino-2,3,4,6-tetradeoxy-4-(α-iminoglycino)-α-D-arabino-hexopyranoside hydrochloride hydrate, reference compound]
0%: Visual Weed Control (%)—21 DAA CYPES Obs (CYPES) | Visual Weed Control (%)—21 DAA IPOHE Obs (IPOHE; [3]) | Visual Weed Control (%)—21 DAA LEFCH Obs (LEFCH; [3]) | Visual Weed Control (%)—21 DAA ECHOR Obs (ECHOR; [3]) | Visual Weed Control (%)—21 DAA DIGSA Obs (DIGSA; [3]) | Visual Weed Control (%)—21 DAA CYPIR Obs (CYPIR)
